Results published in paper PMC11834790, “Pyridine indole hybrids as novel potent CYP17A1 inhibitors” (Journal of Enzyme Inhibition and Medicinal Chemistry, 2025).
Values joined by “and” are separate entries in the source; they are usually repeats but may differ in a detail not shown here. Equal entries are not always repeated.

What was measured:
[1] = Alamar blue (resazurin) cell viability, RWPE-1; assay type: cell-based; conditions: human, RWPE-1 cells, of the control
Protocol: (§1) LNCaP and RWPE-1 cells were plated in 96-well plates at 10 000 cells per well and incubated overnight at 37 °C with 5% CO2. VCaP cells were plated at 12 000 cells per well under the same conditions. After 24 h, the medium was replaced with fresh medium containing the compounds or abiraterone at a final concentration of 10 µM. Cells were incubated for an additional 24 and 48 h. Cell viability was measured using the Alamar Blue assay. Post-incubation, 0.05 mg/mL Alamar Blue solution in phosphate-buffered saline (PBS) was added to each well. The plates were incubated in the dark at 37 °C for 4 h, and fluorescence was measured at an excitation wavelength of 550 nm and an emission wavelength of 590 nm. Cell viability was calculated relative to control sample treated with DMSO. All experiments were conducted in triplicate.

[2] = test system: DU-145 cells; assay: Scratch (wound healing) assay; assay type: cell-based, human; conditions: DU-145, 10 µM; for Wound area, Mean (area remaining open): 24 h, DMSO 170.5; for Effect on cell migration (in words): after 24 h
Protocol: Human prostate cancer DU-145 cells show strong cell proliferation and therefore, are an established model for assay of antiproliferative effects of test compounds. DU-145 cells were plated in 24-well plates at 50 000 cells per well and grown until they reached 85% confluence. To inhibit cell proliferation, cells were treated with 5 µg/mL mitomycin for 2 h. A wound was created using a 10 µL pipette tip. The cells were then exposed to drugs at a concentration of 10 µM, while control wells received DMSO. Wound closure was observed and photographed using an optical microscope after 24 h. Images were analysed using ImageJ software (version 1.54j).

[3] = biological target: T1, CYP17A1 (Homo sapiens, UniProt P05093); assay: CYP17A1 activity calculated as ratios of steroid products to substrates (LC-MS); assay type: cell-based; conditions: normalised to DMSO-treated cells (100%), NCI-H295R
T1 construct: immortalised human adrenal cells expressing CYP17A1 and other steroidogenic enzymes; endogenous in cells; host or cells: NCI-H295R (human adrenal cells)
T1 sequence (P05093 1-508): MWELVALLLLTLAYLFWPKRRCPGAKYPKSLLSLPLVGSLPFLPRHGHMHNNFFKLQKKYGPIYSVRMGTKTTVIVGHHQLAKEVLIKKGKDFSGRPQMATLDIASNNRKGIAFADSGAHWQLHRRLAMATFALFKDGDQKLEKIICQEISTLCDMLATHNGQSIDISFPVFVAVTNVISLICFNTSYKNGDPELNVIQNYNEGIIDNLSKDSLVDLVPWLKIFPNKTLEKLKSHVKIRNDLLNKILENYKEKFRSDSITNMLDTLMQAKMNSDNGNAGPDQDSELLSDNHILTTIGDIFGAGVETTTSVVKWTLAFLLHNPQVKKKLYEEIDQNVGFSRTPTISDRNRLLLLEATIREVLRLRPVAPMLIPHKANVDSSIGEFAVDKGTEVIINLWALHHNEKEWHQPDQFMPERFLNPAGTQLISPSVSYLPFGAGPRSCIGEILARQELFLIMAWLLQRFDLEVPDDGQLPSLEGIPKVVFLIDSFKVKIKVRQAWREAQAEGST
Protocol: (§2) Steroid quantification was performed using Liquid Chromatography–Mass Spectrometry (LC-MS), following established protocols to study effect of compounds on adrenal steroidogenesis. Human adrenal NCI-H295R cells were seeded in 12-well plates at 500 000 cells per well and treated with fresh growth medium containing the test compounds for 4 h. Subsequently, 1 µM pregnenolone was added and incubated for an additional 4 h. Steroids were extracted from 500 µL aliquots of cell media, separated, and quantified according to the referenced methodology.
To provide deeper insights into CYP17A1 inhibition, the enzyme activity was calculated using ratios of steroid products to substrates, focusing on dual activities of CYP17A1 (Figure 4(B)).

[4] = biological target: T1, CYP17A1; assay: CYP17A1 17α-hydroxylase activity assay in NCI-H295R cells ([14C]-progesterone, TLC); assay type: cell-based; conditions: 4 h, DMSO = 100, read-out: CYP17A1 Hydroxylase activity, Mean (percentage of activity remaining relative to the control)
Protocol: (§3) Human adrenal NCI-H295R cells are an established model for assay of CYP17A1 activities. The NCI-H295R cells were seeded in 12-well plates at 500 000 cells per well and incubated overnight. On the following day, 10 µM of test compounds were added to the wells with fresh medium and incubated for 4 h. Abiraterone was used as a reference, and DMSO was included as a control. For assessing CYP17A1 hydroxylase activity, cells were treated with [^14C]-Progesterone at 10 000 cpm/1 µM per well. Trilostane was added prior to the test compounds and substrate to inhibit 3β-hydroxysteroid dehydrogenase activity so that a clean assay of only CYP17A1 activity could be performed[20]^,[27]^,[28]. Radiolabeled steroids were extracted from the media using a mixture of ethyl acetate and isooctane (1:1 v/v) and separated by Thin Layer Chromatography (TLC) on silica gel-coated aluminium plates (Supelco® Analytics, Sigma-Aldrich Chemie GmbH, Taufkirchen, Germany). TLC spots were visualised on a phosphor screen and detected by autoradiography using a Typhoon™ FLA-7000 PhosphorImager (GE Healthcare, Uppsala, Sweden). Radioactivity was quantified with ImageQuant™ TL analysis software (GE Healthcare Europe GmbH, Freiburg, Germany), and enzyme activity was expressed as the percentage of radioactivity incorporated into the product relative to the total radioactivity. For CYP17A1 lyase activity, cells were exposed to 50 000 cpm/1 µM [21-^3H]-17α-hydroxypregnenolone per well under similar conditions. The tritiated water release assay was used to measure the conversion of 17OH-Pregnenolone to DHEA. Steroids in the media were precipitated using a 5% activated charcoal/0.5% dextran solution. Enzyme activity was evaluated based on the water-soluble tritiated by-product formed in equimolar amounts with DHEA, with radioactivity in the aqueous phase quantified by liquid scintillation counting (MicroBeta2® Plate Counter, PerkinElmer Inc., Waltham, MA, USA). Percent inhibition was calculated relative to control samples.

[5] = test system: VCaP cells; assay: Alamar blue (resazurin) cell viability, VCaP; assay type: cell-based, human; conditions: for Cytotoxic effect on VCaP cells (in words): 10 µM, 24 and 48 h
Protocol: as §1

[6] = biological target: T1, CYP17A1; assay: CYP17A1 17,20-lyase activity assay in NCI-H295R cells (tritiated water release); assay type: cell-based; conditions: 4 h, DMSO = 100, read-out: CYP17A1 Lyase activity, Mean (percentage of activity remaining relative to the control)
Protocol: as §3

[7] = test system: adrenal steroidogenesis in NCI-H295R cells; assay: Steroid profiling by LC-MS in NCI-H295R cells; assay type: cell-based, human; conditions: for Androsterone, Mean / Testosterone, Mean / Progesterone, Mean / Androstendione, Mean / 17a-Hydroxyprogesterone, Mean / DHEA, Mean / 11-Deoxycortisol, Mean / 11-Deoxycorticosterone, Mean / Pregnenolone, Mean / Cortisone, Mean / DHEA-S, Mean / Dihydrotestosterone, Mean: compounds at 10 µM; for Androsterone, Mean / Testosterone, Mean / Progesterone, Mean / Androstendione, Mean / 17a-Hydroxyprogesterone, Mean / DHEA, Mean / 11-Deoxycortisol, Mean / 11-Deoxycorticosterone, Mean / Pregnenolone, Mean: 1 µM pregnenolone; for Androsterone, Mean / Cortisone, Mean / DHEA-S, Mean / Dihydrotestosterone, Mean: DMSO 0; for Testosterone, Mean: DMSO 0.4785; for Progesterone, Mean: DMSO 4.814; for Androstendione, Mean: DMSO 7.577; for 17a-Hydroxyprogesterone, Mean: DMSO 9.967; for DHEA, Mean: DMSO 15.119; for 11-Deoxycortisol, Mean: DMSO 26.594; for 11-Deoxycorticosterone, Mean: DMSO 28.1555; for Pregnenolone, Mean: DMSO 2043.56; for Cortisone, Mean / DHEA-S, Mean / Dihydrotestosterone, Mean: not detected within the experimental timeframe
Protocol: as §2

[8] = test system: LNCaP cells; assay: Alamar blue (resazurin) cell viability, LNCaP; assay type: cell-based, human; conditions: 10 µM, 24 and 48 h
Protocol: as §1

[9] = biological target: T1, CYP17A1; assay: CYP17A1 17,20-lyase activity assay in NCI-H295R cells (tritiated water release); assay type: cell-based; conditions: dose-response, read-out: IC50, inhibition of 17,20-lyase activity

For `C[C@]12CC[C@H](O)CC1=CC[C@@H]1[C@@H]2CC[C@]2(C)C(c3cccnc3)=CC[C@@H]12` [ABT, abiraterone, reference compound], the viability at 24 h, 10 µM ([1]; 24 h) was 84%, the viability at 48 h, 10 µM [1] was 66% and the “Wound area, Mean (area remaining open)” value [2] was 935 Pixels^2. For the same compound, the “17α-Hydroxylase activity (ratios of steroid products to substrates)” value [3] was 15.2%, the “Combined 17α-hydroxylase and 17,20-lyase activity (ratios of steroid products to substrates)” value [3] was about 16.3% and the remaining activity at 10 µM [4] was 14%. For the same compound, the “Cytotoxic effect on VCaP cells (in words)” value [5] was “notable reduction in cell viability”, the remaining activity at 10 µM [6] was 24% and the “Androsterone, Mean” value [7] was 0 nmol/L. For the same compound, the “Testosterone, Mean” value [7] was 0.5005 nmol/L, the “Progesterone, Mean” value [7] was 3.809 nmol/L and the “Androstendione, Mean” value [7] was 1.5465 nmol/L. The “17a-Hydroxyprogesterone, Mean” value [7] was 1.202 nmol/L, the “DHEA, Mean” value [7] was 2.775 nmol/L and the “11-Deoxycortisol, Mean” value [7] was 3.585 nmol/L. For the same compound, the “11-Deoxycorticosterone, Mean” value [7] was 2.6135 nmol/L, the “Pregnenolone, Mean” value [7] was 2279.668 nmol/L and the “Cortisone, Mean” value [7] was 0 nmol/L. For the same compound, the “DHEA-S, Mean” value [7] was 0 nmol/L, the “Dihydrotestosterone, Mean” value [7] was 0 nmol/L and the “Cytotoxic effect on LNCaP cells (in words)” value [8] was “notable reduction in cell viability”.

In the case of `N#Cc1c(-c2ccncc2)cc(-c2ccc3[nH]ccc3c2)nc1N` [Compound 5, 2-Amino-6-(1H-indol-5-yl)-[4,4′-bipyridine]-3-carbonitrile], the IC50 [9] is reported as 25 nM, the “Wound area, Mean (area remaining open)” value [2] is reported as 1916 Pixels^2 and the “Effect on cell migration (in words)” value [2] is reported as “less pronounced effect comparable to that exerted by abiraterone”. For the same compound, the “17α-Hydroxylase activity (ratios of steroid products to substrates)” value [3] was 1.7%, the remaining activity at 10 µM [4] was 20% and the viability at 10 µM ([5]; Homo sapiens, VCaP, 24 h) was under 50%. The remaining activity at 10 µM [6] was 39.7%, the “Androsterone, Mean” value [7] was 0.009 nmol/L and the “Testosterone, Mean” value [7] was 0.5215 nmol/L. For the same compound, the “Progesterone, Mean” value [7] was 39.9815 nmol/L, the “Androstendione, Mean” value [7] was 1.4095 nmol/L and the “17a-Hydroxyprogesterone, Mean” value [7] was 1.3865 nmol/L. The “DHEA, Mean” value [7] was 0.748 nmol/L, the “11-Deoxycortisol, Mean” value [7] was 4.0415 nmol/L and the “11-Deoxycorticosterone, Mean” value [7] was 5.503 nmol/L. For the same compound, the “Pregnenolone, Mean” value [7] was 2578.994 nmol/L, the “Cortisone, Mean” value [7] was 0 nmol/L and the “DHEA-S, Mean” value [7] was 0 nmol/L. For the same compound, the “Dihydrotestosterone, Mean” value [7] was 0 nmol/L and the “Cytotoxic effect on LNCaP cells (in words)” value [8] was “marked reduction in viability”.

In the case of `N#Cc1c(-c2ccncc2)cc(-c2ccc3[nH]ccc3c2)c(C#N)c1N` [Compound 11, 2-Amino-4-(1H-indol-5-yl)-6-(pyridin-4-yl)isophthalonitrile], the IC50 [9] is reported as 4 nM, the “Wound area, Mean (area remaining open)” value [2] is reported as 8703 Pixels^2 and the “Effect on cell migration (in words)” value [2] is reported as “significant inhibition of cell migration”. The “17α-Hydroxylase activity (ratios of steroid products to substrates)” value [3] was 1%, the remaining activity at 10 µM [4] was 10% and the “Cytotoxic effect on VCaP cells (in words)” value [5] was “did not exhibit high cytotoxic effects”. The remaining activity at 10 µM [6] was 49.2%, the “Androsterone, Mean” value [7] was 1.176 nmol/L and the “Testosterone, Mean” value [7] was 0.4775 nmol/L. For the same compound, the “Progesterone, Mean” value [7] was 67.3265 nmol/L, the “Androstendione, Mean” value [7] was 1.3725 nmol/L and the “17a-Hydroxyprogesterone, Mean” value [7] was 1.3575 nmol/L. The “DHEA, Mean” value [7] was 1.36 nmol/L and 1.3585 nmol/L, the “11-Deoxycortisol, Mean” value [7] was 3.942 nmol/L and the “11-Deoxycorticosterone, Mean” value [7] was 3.8565 nmol/L. The “Pregnenolone, Mean” value [7] was 2465.505 nmol/L, the “Cortisone, Mean” value [7] was 0 nmol/L and the “DHEA-S, Mean” value [7] was 0 nmol/L. For the same compound, the “Dihydrotestosterone, Mean” value [7] was 0 nmol/L, the “Reduction of DHEA level” value ([7]; vs DMSO control) was 11 fold and the “Cytotoxic effect on LNCaP cells (in words)” value [8] was “did not exhibit high cytotoxic effects”.

With `c1cncc(-c2cccc(-c3ccc4[nH]ccc4c3)c2)c1` [Compound 12, 5-(3-(Pyridin-3-yl)phenyl)-1H-indole] the viability at 48 h, 10 µM [1] was 85%, the remaining activity at 10 µM [4] was 46% and the remaining activity at 10 µM [6] was 48.7%.
